Measured values taken from ChEMBL document CHEMBL3352249, “Novel indolizine derivatives with unprecedented inhibitory activity on human farnesyltransferase” (Bioorg Med Chem Lett, 2014).

What was measured:
[1] = biological target: T1, Protein farnesyltransferase (Homo sapiens, UniProt P49354+P49356); assay: Inhibition of human recombinant farnesyltransferase using Dansyl-GCVLS peptide as substrate at 100 uM after 15 mins by fluorescence assay
[2] = biological target: T1, Protein farnesyltransferase; assay: Inhibition of human recombinant farnesyltransferase using Dansyl-GCVLS peptide as substrate after 15 mins by fluorescence assay

SMILES	inhibition [1]	IC50 [2]
C#CCNC(=O)c1cc(C(=O)c2ccccc2)n2ccccc12	100%	22.1 µM
Cc1cccc2c(C(=O)O)cc(C(=O)c3ccccc3)n12	48%	–
Cc1cccc2c(C(=O)O)cc(C(=O)c3ccc(Cl)cc3)n12	79%	32.2 µM
C#CCNC(=O)c1cc(C(=O)c2ccc(Br)cc2)n2c(C)cccc12	90%	11.4 µM
O=C(O)c1cc(C(=O)c2ccccc2)n2ccccc12	100%	19.7 µM
C#CCNC(=O)c1cc(C(=O)c2ccc(Cl)cc2)n2c(C)cccc12	97%	14.9 µM
CCCCCCCCCCCCCC/C(C(=O)O)=C(\C)C(=O)O [CHAETOMELLIC ACID A]	100%	0.18 µM
C#CCNC(=O)c1cc(C(=O)c2ccc(Br)cc2)n2ccccc12	100%	4.4 µM
C#CCOC(=O)c1cc(C(=O)c2ccc(Cl)cc2)n2c(C)cccc12	100%	2.6 µM
C#CCOC(=O)c1cc(C(=O)c2ccccc2)n2ccccc12	100%	14.4 µM
C#CCNC(=O)c1cc(C(=O)c2ccccc2)n2c(C)cccc12	74%	57.8 µM
C#CCCOC(=O)c1cc(C(=O)c2ccccc2)n2ccc(C)cc12	0%	–
C#CCCOC(=O)c1cc(C(=O)c2ccc(Cl)cc2)n2ccccc12	0%	–
C#CCCOC(=O)c1cc(C(=O)c2ccccc2)n2c(C)cccc12	94%	7.3 µM
O=C(O)c1cc(C(=O)c2ccc(Cl)cc2)n2ccccc12	100%	20.7 µM
C#CCOC(=O)c1cc(C(=O)c2ccccc2)n2ccc(C)cc12	72%	–
C#CCCOC(=O)c1cc(C(=O)c2ccc(Br)cc2)n2c(C)cccc12	100%	2.2 µM

SMILES	inhibition [1]	IC50 [2]
O=C(O)c1cc(C(=O)c2ccc(Br)cc2)n2ccccc12	100%	19.4 µM
Cc1ccn2c(C(=O)c3ccc(Cl)cc3)cc(C(=O)O)c2c1	0%	–
Cc1cccc2c(C(=O)O)cc(C(=O)c3ccc(Br)cc3)n12	91%	14.8 µM
C#CCCOC(=O)c1cc(C(=O)c2ccc(Br)cc2)n2ccc(C)cc12	68%	–
C#CCOC(=O)c1cc(C(=O)c2ccc(Br)cc2)n2c(C)cccc12	100%	1.3 µM
C#CCCOC(=O)c1cc(C(=O)c2ccc(Br)cc2)n2ccccc12	0%	–
C#CCNC(=O)c1cc(C(=O)c2ccc(Cl)cc2)n2ccccc12	94%	5.9 µM
C#CCCOC(=O)c1cc(C(=O)c2ccc(Cl)cc2)n2c(C)cccc12	97%	20.7 µM
Cc1ccn2c(C(=O)c3ccc(Br)cc3)cc(C(=O)O)c2c1	0%	–
C#CCCOC(=O)c1cc(C(=O)c2ccc(Cl)cc2)n2ccc(C)cc12	0%	–
C#CCCOC(=O)c1cc(C(=O)c2ccccc2)n2ccccc12	61%	–
C#CCNC(=O)c1cc(C(=O)c2ccccc2)n2ccc(C)cc12	100%	15.3 µM
C#CCOC(=O)c1cc(C(=O)c2ccc(Cl)cc2)n2ccc(C)cc12	0%	–
Cc1ccn2c(C(=O)c3ccccc3)cc(C(=O)O)c2c1	100%	72.3 µM
C#CCOC(=O)c1cc(C(=O)c2ccc(Cl)cc2)n2ccccc12	54%	–
C#CCOC(=O)c1cc(C(=O)c2ccccc2)n2c(C)cccc12	93%	20.8 µM
